# Patent publication US8778871B2 (Takeda Pharmaceutical Company Limited, priority 2004, dated 2014)
# Non-standard residues stand in square brackets, D forms with d. Residues, ends and D or L forms follow the SMILES beside them. *: point of attachment. Propanoyl(3-(3-pyridyl)) = O=C(CCc1cccnc1)*; Arg(Me) = CNC(=N)NCCC[C@H](N)C(=O)O; d4Pal = N[C@H](Cc1ccncc1)C(=O)O; azaGly = NNC(=O)O
# Tests used:
# hOT7T175 [1] = molecular target: T1, hOT7T175 (Homo sapiens, UniProt Q969F8); assay: Intracellular Ca ion level-increasing activity using FLIPR (180 seconds; specific activity to Metastin (1-54)); type: cell-based; conditions: hOT7T175/CHO, change in intracellular calcium ion level for 180 seconds, Tables 21-23
# T1 construct: expressed in transfected cells
# T1 sequence (Q969F8 whole entry L364H): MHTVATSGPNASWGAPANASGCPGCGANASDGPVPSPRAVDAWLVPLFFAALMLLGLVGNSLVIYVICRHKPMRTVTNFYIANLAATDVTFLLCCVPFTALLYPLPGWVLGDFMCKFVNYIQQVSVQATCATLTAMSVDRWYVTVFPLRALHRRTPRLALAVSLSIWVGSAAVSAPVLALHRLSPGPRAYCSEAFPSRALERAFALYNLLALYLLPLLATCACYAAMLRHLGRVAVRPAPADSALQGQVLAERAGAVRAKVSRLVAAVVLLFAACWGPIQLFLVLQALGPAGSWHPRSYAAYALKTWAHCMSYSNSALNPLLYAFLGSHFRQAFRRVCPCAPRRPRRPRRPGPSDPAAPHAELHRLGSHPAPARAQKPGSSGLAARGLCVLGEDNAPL
# hOT7T175 [2] = molecular target: T2, hOT7T175 (Homo sapiens, UniProt Q969F8, L364H); type: cell-based; conditions: hOT7T175/CHO, FLIPR, evaluation for 40 seconds after initiation of the reaction
# T2 construct: expressed in transfected cells
# T2 sequence (Q969F8 whole entry L364H): as above
# Procedure: The intracellular Ca ion level-increasing activity was measured using FLIPR as in TEST EXAMPLE 2.
# [3] = system: human colonic carcinoma-derived cell line SW620; assay: Tumor growth inhibition activity in tumor-bearing mice; type: in vivo, mouse; conditions: for tumor growth inhibition (tumor size) compared to the vehicle group: s.c. osmotic pump; for effect of tumor growth inhibition relative to Metastin: in vivo
# Procedure: The abscissa denotes the number of days after injection. The bar on the abscissa designates a dosing period. The ordinate denotes a tumor size (mm^3).
# On the following day, human colonic carcinoma-derived cell line SW620 (ATCC) was dissolved in 20 mM phosphate buffered saline (pH 7.2)(PBS) containing 200 μL of 0.15M NaCl at a density of 2×10^6 cells. The resulting solution was subcutaneously injected into the left flank of the mice above. The day when the cells were injected was made Day 0. Tumor was measured with an electronic caliper every other or 2 other days during Days 4 to 13 from the cell administration, and tumor size was calculated by the equation: (shorter diameter)^2×longer diameter/2.
# [4] = Effect of elevating sugar level by metastin derivatives (blood glucose and glucagon); type: in vivo, rat; conditions: Wistar male rats; for blood glucose level: i.v. 80 nmol/kg (FIG. 10); for blood glucagon level: i.v. 80 nmol/kg (FIG. 11)
# From the text: The value indicates (mean±SE) (n=5). Symbol * designates that the P-value is 0.05 or less, when compared to the saline group and symbol ** designates that the P-value is 0.01 or less, when compared to the saline group.
# In the figure, symbols open circle, closed circle and closed triangle designate blood glucagon level in the saline group and the 80 nmol/kg KiSS1-305 (Compound No. 305) group, the 80 nmol/kg KiSS1-322 (Compound No. 322) group, respectively. The value indicates (mean±SE) (n=5). Symbol * designates that the P-value is 0.05 or less, when compared to the saline group.
# An operation was performed in free moving mature Wistar male rats (weighing […] at the time of operation) in a manner similar to TEST EXAMPLE 1 to collect blood. After the operation, the animal was maintained overnight. […] To prevent blood clotting, 3 μl of 300 KIU/ml aprotinin solution containing 3 mg/ml EDTA had previously been filled in the syringe. […] Blood was collected from the jugular vein by 300 μl each 2, 5, 15, 30, 45 and 60 minutes starting from the intravenous injection. The collected blood was centrifuged (13,000 rpm, 5 minutes) with a high speed refrigerated centrifuge (MR-150, Tomy Seiko Co, Ltd.) to recover the supernatant (plasma). Glucose level in blood was measured using Fuji Drychem 3500 (FUJI FILM) and glucagon level in blood was measured using a glucagon kit “Daiichi” (Daiichi Radioisotope Laboratories Ltd.), as in TEST EXAMPLE 1 or 2.
# [5] = SW620 tumor-bearing BALB/cAnN-nu mice, 1 mM, 24 mol/day/mouse×14 days (24 nmol for Compound No. 305)
# [6] = SW620 tumor-bearing mice, 0.1 mM, 1/10 dose of Metastin, 2.4 mol (nmol)/day/mouse×14 days
SMILES,intracellular Ca ion level-increasing activity [specific activity to Metastin (1-54)] (hOT7T175 [1]),Specific Act. (EC50/MS10 EC50) (hOT7T175 [2]),"tumor growth inhibition (tumor size) compared to the vehicle group [3, 5]",effect of tumor growth inhibition relative to Metastin ([3]; SW620 tumor-bearing mice) [times],"tumor growth inhibition (tumor size) compared to the vehicle group [3, 6]","tumor growth inhibition (tumor size) compared with the Metastin group ([3]; SW620 tumor-bearing mice, same dose as Metastin, 24 mol/day/mouse×14 days)",blood glucose level [4],blood glucagon level [4]
"CNC(=N)NCCC[C@H](NC(=O)[C@H](CC(C)C)NC(=O)NNC(=O)[C@H](Cc1ccccc1)NC(=O)[C@H](CO)NC(=O)[C@H](CC(N)=O)NC(=O)CCc1cccnc1)C(=O)N[C@@H](Cc1ccccc1)C(N)=O [Compound No. 322, 3-(3-Pyridyl)propionyl-Asn-Ser-Phe-AzaGly-Leu-Arg(Me)-Phe-NH2] ({Propanoyl(3-(3-pyridyl))}-NSF[azaGly]L[Arg(Me)]F-NH2)",1,5.4,significant tumor growth inhibition activity from Days 6 to 11,10,significant tumor growth inhibition activity in a 1/10 dose (2.4 mol/day/mouse×14 days) of Metastin from Days 6 to 8,"on Day 11, showed a significant tumor growth inhibition activity even when compared with the Metastin group",increase in the blood glucose level,increase in the blood glucagon level
"CNC(=N)NCCC[C@H](NC(=O)[C@H](CC(C)C)NC(=O)NNC(=O)[C@H](Cc1ccccc1)NC(=O)[C@H](CO)NC(=O)[C@H](CC(N)=O)NC(=O)[C@@H](Cc1ccncc1)NC(=O)[C@H](N)Cc1ccc(O)cc1)C(=O)N[C@@H](Cc1ccccc1)C(N)=O [Compound No. 305, D-Tyr-D-Pya(4)-Asn-Ser-Phe-AzaGly-Leu-Arg(Me)-Phe-NH2] (H-[dY][d4Pal]NSF[azaGly]L[Arg(Me)]F-NH2)",5,2.0,significant effect of tumor growth inhibition from Days 5 to 9 and on Day 11,10,significant tumor growth inhibition activity from Days 5 to 11,,increase in the blood glucose level,increase in the blood glucagon level
